Laboratory results taken from patent US9603980B2, “Layer-by-layer stereocomplexed polymers as drug depot carriers or coatings in medical devices” (Cardinal Health Switzerland 515 GmbH, priority 2008, dated 2017).

Experiments:
[1] = Drug concentration in liquid formulations (liquid chromatography / HPLC assay); format: physicochemical
Description: In accordance with exemplary embodiments of the present invention, a series of liquid formulations were developed for the local or regional delivery of water insoluble compounds such as sirolimus and its analogs, including CCI-779, ABT-578 and everolimus, through weeping balloons and catheter injection needles. […] These liquid formulations increase the apparent solubility of the pharmacologically active but water insoluble compounds by two to four orders of magnitude as compared to the solubility limits of the compounds in water. These liquid formulations rely on the use of a very small amount of organic solvents such as Ethanol (typically less than two percent) and a larger amount of safe amphiphilic (of or relating to a molecule having a polar, water soluble group attached to a non-polar, water insoluble […]) excipients such as polyethylene glycol (PEG 200, PEG 400) and vitamin E TPGS to enhance the solubility of the compounds. These liquid formulations of highly water insoluble compounds are stable and readily flowable at room temperature. Certain excipients, such as Vitamin E TPGS and BHT may be utilized to enhance the storage stability of sirolimus compounds through their anti-oxidation properties. […]

[2] = system: human coronary artery smooth muscle cells; test: Anti-proliferative activity in non-synchronized cultured cells stimulated with two percent fetal bovine serum; format: cell-based
Description: The multiple curves represent various concentrations of mycophenolic acid ranging from zero to one thousand nanomolar concentrations.
FIG. 58 illustrates, in graphical format, the anti-proliferative activity of cladribine in non-synchronized cultured human coronary artery smooth muscle cells stimulated with two percent fetal bovine serum.
The multiple curves represent various concentrations of cladribine ranging from zero to nine hundred nanomolar concentrations.

[3] = system: human smooth muscle cells; test: Cladribine Example: PDGF-stimulated cell proliferation, cell count on day six; format: cell-based; conditions: from IC50 values
Method: To assess the ability of cladribine to prevent cell proliferation, human smooth muscle or endothelial cells (Clonetics, Walkersville, Md.) were seeded at a density of 2000 cells/cm^2 (approximately 3600 cells/well) into each well of 12-well plates and cultured with 1.5 ml of growth medium containing five percent fetal calf serum (FCS). After twenty-four hours, the growth medium was changed and fresh medium containing 10 ng/ml platelet-derived growth factor AB (PDGF AB; LIFE Technologies), as well as various concentrations of cladribine (0.001-10,000 nM) were added with triplicate wells. Medium was replaced with fresh cladribine-containing medium after three days. On day six, cells were detached by trypsinization to yield a cell suspension, lightly centrifuged to pellet and then counted manually using a Neubauer hemocytometer system. Cell viability was assessed by trypan blue exclusion.

[4] = In vivo release kinetics from stent coatings, porcine pharmacokinetics studies
Description: The topcoat is two hundred micro grams.
(§1) The basecoat is applied to Bx Velocity® stents and implanted into Yorkshire pigs.
as §1

[5] = system: human coronary artery smooth muscle cells; test: Anti-proliferative activity in synchronized cultured cells stimulated with two percent fetal bovine serum; format: cell-based
Description: (§2) The multiple curves represent various concentrations of topotecan ranging from zero to three hundred nanomolar concentrations.
(§3) The multiple curves represent various concentrations of etoposide ranging from zero to eight hundred nanomolar concentrations.
The multiple curves represent various concentrations of Panzem® ranging from zero to 100 micromolar concentrations.

[6] = system: cell viability; test: Cell viability assay; format: cell-based
Description: as §2, §3

[7] = system: human coronary artery smooth muscle cells; test: Antiproliferative effects of PX867 on cultured cells; format: cell-based
Description: A PI3 kinase inhibitor can affect restinosis when administered by local or systemic delivery alone or in combination with sirolimus. FIGS. 87 and 88 illustrate the antiproliferative effects of PX867 on cultured human coronary artery smooth muscle cells alone (FIG. 87) or in combination with sirolimus (FIG. 88). […] Curve 8702 illustrates the percent inhibition for various concentrations. In FIG. 88, the six curves 8802, 8804, 8806, 8808, 8810 and 8812 represent various concentrations of PX867 with various concentrations of sirolimus. […] More specifically, curve 8812 illustrates the percent inhibition for a 240 nM PX-867 concentration. […] This may be compared to curve 8804 which represents a 15 nM PX-867 concentration. As one can see, the percent inhibition increases as the concentration of sirolimus increases. Accordingly, a potent PI3 kinase inhibitor, such as PX-867, can improve the inhibition of coronary artery smooth muscle cell proliferation either as a stand alone treatment or via combination with another restenotic agent, such as sirolimus.

[8] = system: human coronary artery smooth muscle cell; test: MTS cytotoxicity assay; format: cell-based; conditions: concentrations up to 30,000.00 nanomolar (6.6 to 30,000.00 nanomolar tested)
Description: Typically, a control is utilized to determine baseline toxicity.

[9] = Porcine drug elution PK study of dual drug eluting coating; format: in vivo; conditions: after eight (8) days of implantation, single-layer coating of FIG. 83
Description: Another critical parameter for the performance of the thrombus resistance of a device coated with cilostazol is the duration of the drug release from the coating. This is of particular significance in the two weeks after device implantation. In the porcine drug elution PK studies of the dual drug eluting coating, both cilostazol and sirolius were slowly released from the coating, resulting in a sustained drug release profile. The purpose of the porcine PK study is to assess the local pharmacokinetics of a drug eluting stent at a given implantation time. Normally three stents are implanted in three different coronary arteries in a pig for a given time point and then retrieved for total drug recovery analysis. The stents are retrieved at predetermined time points; namely, 1, 3 and 8 days. The stents are extracted and the total amount of drug remaining on the stents is determined by analysis utilizing HPLC (high performance liquid chromatography) for total drug amount. The difference between the original amount of drug on the stent and the amount of drug retrieved at a given time represents the amount of drug released in that period. The continuous release of drug into surrounding arterial tissue is what prevents the neointimal growth and restenosis in the coronary artery. A normal plot represents the percentage of total drug released (%, y-axis) vs. time of implantation (day, x-axis). […]

[10] = In vitro release of sirolimus and cilostazol from single-layer coating; format: physicochemical; conditions: single-layer coating of FIG. 83
[11] = system: human coronary artery smooth muscle cell; test: Inhibition of coronary artery smooth muscle cell proliferation by trichostatin A, in vitro cell culture study; format: cell-based
Description: FIG. 51 is a graph of the inhibition of coronary artery smooth muscle cells by trichostatin A in a cell culture study.

[12] = system: tumor cell lines; conditions: cited from earlier work

Q: Which “concentration in the final solution (HPLC assay)” value ([1]; ethanol less than two percent, Vitamin E TPGS, water) does the source give for `CO[C@H]1C[C@@H]2CC[C@@H](C)[C@@](O)(O2)C(=O)C(=O)N2CCCC[C@H]2C(=O)O[C@H]([C@H](C)C[C@@H]2CC[C@@H](OC(=O)C(C)(CO)CO)[C@H](OC)C2)CC(=O)[C@H](C)/C=C(\C)[C@@H](O)[C@@H](OC)C(=O)[C@H](C)C[C@H](C)/C=C/C=C/C=C/1C` [CCI-779] here?
A: 15000 µg/mL

Q: With `Nc1nc(Cl)nc2c1ncn2[C@H]1C[C@H](O)[C@@H](CO)O1` [Cladribine, 2-chlorodeoxyadenosine] as the compound, how does the “effect of addition to cells treated with rapamycin” value (from here on “effect of addition to cells treated”) ([2]; cladribine 56.25 to 900 nanomolar) read?
A: increases the percent inhibition of rapamycin alone

Q: And the “inhibition of human coronary artery smooth muscle cell proliferation” value ([2]; non-synchronized cells, two percent fetal bovine serum)?
A: completely inhibits

Q: And the “potency as inhibitor of smooth muscle cells relative to endothelial cells” value [3]?
A: approximately twice

Q: And the “in vivo elution from polymeric stent coating, compared with co-loaded drug” value ([4]; Yorkshire pigs, EVA/BMA basecoat, BMA topcoat, Bx Velocity stents)?
A: elutes more rapidly than rapamycin

Q: With `COc1cc([C@@H]2c3cc4c(cc3[C@@H](O[C@@H]3O[C@@H]5CO[C@@H](C)O[C@H]5[C@H](O)[C@H]3O)[C@H]3COC(=O)[C@H]23)OCO4)cc(OC)c1O` [Etoposide, etoposide] as the compound, how does the “effect of addition to cells treated” value ([5]; etoposide 255.7 to eight-hundred nanomolar) read?
A: increases the percent inhibition of rapamycin alone

Q: And the cytotoxicity ([6]; concentrations up to ten micromolar)?
A: non-cytotoxic

Q: What does the source list for `COC[C@H]1OC(=O)/C(=C\N2CCCC2)C2=C(O)C(=O)C3=C([C@H](OC(C)=O)C[C@]4(C)C(=O)CC[C@@H]34)[C@]21C` [PX-867]?
A: inhibition of coronary artery smooth muscle cell proliferation ([7]; PX867 alone, concentration of about 10^−6 (unit not given)): one hundred; combination with sirolimus ([7]; PX-867 15 to 240 nM with various concentrations of sirolimus): strong synergistic effect

Q: For `COc1cc2c(cc1O)CC[C@@H]1[C@@H]2CC[C@]2(C)[C@@H](O)CC[C@@H]12` [Panzem®, 2-methoxyestradiol], which “effect of addition to cells treated” value ([5]; Panzem 0.813 to 100 micromolar) is on record?
A: increases the percent of inhibition of rapamycin alone

Q: What about the “inhibition of human coronary artery smooth muscle cell proliferation in vitro” value ([5]; agent alone) of the same compound?
A: extremely effective inhibitor

Q: And the “human coronary artery smooth muscle cell survival” value [8]?
A: do not reduce human coronary artery smooth muscle cell survival

Q: Which results are given for `CC[C@@]1(O)C(=O)OCc2c1cc1n(c2=O)Cc2cc3c(CN(C)C)c(O)ccc3nc2-1` [Topotecan, topotecan]?
A: effect of addition to cells treated with rapamycin ([5]; topotecan 18.8 to 300 nanomolar): increases the percent inhibition of rapamycin alone; cytotoxicity ([6]; concentrations up to one micromolar): non-cytotoxic

Q: What does the source list for `O=C1CCc2cc(OCCCCc3nnnn3C3CCCCC3)ccc2N1` [cilostazol, 6[4-(1-cyclohexyl-1H-tetrazol-5-yl)-butoxy]-3,4-dihydro-2-(1H)-quinolinone]?
A: drug remaining in the drug coating [9]: ~80%; in vitro release [10]: ~35%

Q: Which results are given for `COc1c(C)c2c(c(O)c1C/C=C(\C)CCC(=O)O)C(=O)OC2` [mycophenolic acid]?
A: effect of addition on the anti-proliferative rapamycin dose response curve ([2]; mycophenolic acid zero to one thousand nanomolar, leftward and upward shift): potentiates the anti-proliferative activity of rapamycin; in vivo release from basecoat, compared with co-loaded drug ([4]; porcine, EVA/BMA basecoat with rapamycin and mycophenolic acid 180 μg each, with or without BMA topcoat): elutes more completely over a shorter duration than the rapamycin

Q: What does the source list for `CO[C@H]1C[C@@H]2CC[C@@H](C)[C@@](O)(O2)C(=O)C(=O)N2CCCC[C@H]2C(=O)O[C@H]([C@H](C)C[C@@H]2CC[C@@H](O)[C@H](OC)C2)CC(=O)[C@H](C)/C=C(\C)[C@@H](O)[C@@H](OC)C(=O)[C@H](C)C[C@H](C)/C=C/C=C/C=C/1C` [rapamycin]?
A: drug remaining in the drug coating [9]: ~80%; in vivo release rate, compared with co-loaded drug ([4]; porcine, PVDF basecoat with PVDF topcoat): slower release rate than that of mycophenolic acid; concentration relative to the solubility of sirolimus in water ([1]; 4 mg/ml formulation): four hundred to about one thousand

Q: For `CC(/C=C/C(=O)NO)=C\[C@@H](C)C(=O)c1ccc(N(C)C)cc1` [trichostatin A], which “inhibition of human coronary artery smooth muscle cell proliferation” value [11] is on record?
A: completely inhibit

Q: What about the IC50 ([11]; read-out: anti-proliferative IC50) of the same compound?
A: ~6 nM

Q: And the “anti-proliferative IC50's” value [12]?
A: low nM range
